Results taken from patent publication US11077090B2, “Compounds and compositions and uses thereof” (Sunovion Pharmaceuticals Inc., priority 2016, dated 2021).
Where two headings read alike, the source gives them in different places.

System: compound-treated mice
Test: Neuropharmacological assay (SmartCube): behavioral activity signature and minimal effective dose
Type: in vivo
Conditions: for minimal effective dose: Mus musculus, ip; for AD: ADHD (probability of activity signature) / AG: analgesic (probability of activity signature) / AX: anxiolytic (probability of activity signature) / CE: cognitive enhancer (probability of activity signature) / DP: anti-depressant (probability of activity signature) / MS: mood stabilizer (probability of activity signature) / PS: anti-psychotic (probability of activity signature) / SD: sedative hypnotic (probability of activity signature) / UN: uncharacterized CNS activity (probability of activity signature): i.p. 15 min before test, most efficacious dose(s)
Description: Neurosci. 2011 Sep. 9; 5:103 (doi: 10.3389/fnins.2011.00103) (“Roberds”). As reported in Roberds, because psychiatric diseases generally result from disorders of cell-cell communication or circuitry, intact systems are useful in detecting improvement in disease-relevant endpoints. These endpoints are typically behavioral in nature, often requiring human observation and interpretation. To facilitate testing of multiple compounds for behavioral effects relevant to psychiatric disease, PsychoGenics, Inc. (Tarrytown, N.Y., “PGI”) developed SmartCube™, an automated system in which behaviors of compound-treated mice are captured by digital video and analyzed with computer algorithms. (D. Brunner et al., Drug Discov. Today 2002, 7:S107-S112). PGI Analytical Systems uses data from SmartCube™ to compare the behavioral signature of a test compound to a database of behavioral signatures obtained using a large set of diverse reference compounds. (The composition of the database as well as validation of the method is further described in Roberds). In this way, the neuropharmacological effects of a test compound can be predicted by similarity to major classes of compounds, such as antipsychotics, anxiolytics and antidepressants.
The SmartCube™ system produces an activity signature indicating the probability that the activity of the test compound at the administered dose matches a given class of neuropharmacological agents. (See, e.g., Roberds, FIGS. 2 and 3). The test compound is simultaneously compared against multiple classes of agents; thus, a separate probability is generated for each behavioral effect measured (e.g., anxiolytic activity, analgesic activity, etc.). In the table below, these probabilities are reported for each behavioral effect measured as follows:
where LOQ is the limit of quantification.
Provided compounds were dissolved in a mixture of Pharmasolve™ (N-methyl-2-pyrrolidone), polyethylene glycol and propylene glycol, and were injected i.p. 15 min. before the behavioral test. For each compound, injections were administered at 3 different doses. For each behavioral effect measured, results for the most efficacious dose(s) are presented. In the table below, DP: anti-depressant; AX: anxiolytic; SD: sedative hypnotic; PS: anti-psychotic; MS: mood stabilizer; AD: ADHD; CE: cognitive enhancer; AG: analgesic; UN: uncharacterized CNS activity.
The potency of many of the compounds in the table was also determined in the SmartCube™ system. Test compounds were routinely examined at dose levels of 0.3, 1, 3, 10 and 30 mg per kg (mpk), although the dose range was increased or decreased if necessary to obtain a full dose response curve. A compound's minimal effective dose (MED) is a measure of the compounds potency. The MED was defined as the dose (in mpk) having 50% or more total activity in SmartCube.

[1] = MED = dose having 50% or more total activity, read-out: Potency: minimal effective dose (MED)
[2] = MED = dose having 50% or more total activity, read-out: Potency: minimal effective dose (MED), binned

SMILES: CNC1CCOCc2ccc(C)cc21.Cl (stereo not drawn) [Example 59]
- minimal effective dose [1]: 3 to 10 mg/kg
- AD: ADHD (probability of activity signature): + (LOQ ≤ + <5%)
- AG: analgesic (probability of activity signature): +++ (25% ≤ +++ <50%)
- AX: anxiolytic (probability of activity signature): ++ (5% ≤ ++ <25%)
- CE: cognitive enhancer (probability of activity signature): ++ (5% ≤ ++ <25%)
- DP: anti-depressant (probability of activity signature): ++ (5% ≤ ++ <25%)
- MS: mood stabilizer (probability of activity signature): + (LOQ ≤ + <5%)
- PS: anti-psychotic (probability of activity signature): ++ (5% ≤ ++ <25%)
- SD: sedative hypnotic (probability of activity signature): ++ (5% ≤ ++ <25%)
- UN: uncharacterized CNS activity (probability of activity signature): +++ (25% ≤ +++ <50%)

SMILES: Cl.NC1COCc2ccc3c(c21)C1CCC3C1 (single isomer, unassigned) [Example 162]
- Potency: minimal effective dose (MED), binned (MED = dose having 50% or more total activity): B (>3 to 10 mpk)
- AD: ADHD (probability of activity signature): + (LOQ ≤ + <5%)
- AG: analgesic (probability of activity signature): ++ (5% ≤ ++ <25%)
- AX: anxiolytic (probability of activity signature): +++ (25% ≤ +++ <50%)
- CE: cognitive enhancer (probability of activity signature): ++ (5% ≤ ++ <25%)
- DP: anti-depressant (probability of activity signature): + (LOQ ≤ + <5%)
- MS: mood stabilizer (probability of activity signature): + (LOQ ≤ + <5%)
- PS: anti-psychotic (probability of activity signature): ++ (5% ≤ ++ <25%)
- SD: sedative hypnotic (probability of activity signature): + (LOQ ≤ + <5%)
- UN: uncharacterized CNS activity (probability of activity signature): +++ (25% ≤ +++ <50%)

SMILES: CCCN[C@@H]1c2ccccc2CO[C@H]1C.Cl [Example 264]
- minimal effective dose [2]: 3 to 10 mg/kg
- AD: ADHD (probability of activity signature): ++ (5% ≤ ++ <25%)
- AG: analgesic (probability of activity signature): + (LOQ ≤ + <5%)
- AX: anxiolytic (probability of activity signature): ++ (5% ≤ ++ <25%)
- CE: cognitive enhancer (probability of activity signature): + (LOQ ≤ + <5%)
- DP: anti-depressant (probability of activity signature): ++ (5% ≤ ++ <25%)
- MS: mood stabilizer (probability of activity signature): ++ (5% ≤ ++ <25%)
- PS: anti-psychotic (probability of activity signature): +++ (25% ≤ +++ <50%)
- SD: sedative hypnotic (probability of activity signature): ++ (5% ≤ ++ <25%)
- UN: uncharacterized CNS activity (probability of activity signature): + (LOQ ≤ + <5%)

SMILES: Cc1cccc2c1C(N)CCOC2.Cl (stereo not drawn) [Example 39]
- minimal effective dose [1]: 3 to 10 mg/kg
- AD: ADHD (probability of activity signature): + (LOQ ≤ + <5%)
- AG: analgesic (probability of activity signature): ++ (5% ≤ ++ <25%)
- AX: anxiolytic (probability of activity signature): +++ (25% ≤ +++ <50%)
- CE: cognitive enhancer (probability of activity signature): ++ (5% ≤ ++ <25%)
- DP: anti-depressant (probability of activity signature): ++ (5% ≤ ++ <25%)
- MS: mood stabilizer (probability of activity signature): + (LOQ ≤ + <5%)
- PS: anti-psychotic (probability of activity signature): + (LOQ ≤ + <5%)
- SD: sedative hypnotic (probability of activity signature): + (LOQ ≤ + <5%)
- UN: uncharacterized CNS activity (probability of activity signature): ++++ (50% ≤ ++++)

SMILES: Cc1ccc2c(c1C)C(N)CCOC2.Cl (stereo not drawn) [Example 43, 6,7-Dimethyl-1,3,4,5-tetrahydrobenzo [c]oxepin-5-amine hydrochloride]
- minimal effective dose [1]: 10 to 30 mg/kg
- AD: ADHD (probability of activity signature): + (LOQ ≤ + <5%)
- AG: analgesic (probability of activity signature): ++ (5% ≤ ++ <25%)
- AX: anxiolytic (probability of activity signature): +++ (25% ≤ +++ <50%)
- CE: cognitive enhancer (probability of activity signature): ++ (5% ≤ ++ <25%)
- DP: anti-depressant (probability of activity signature): + (LOQ ≤ + <5%)
- MS: mood stabilizer (probability of activity signature): + (LOQ ≤ + <5%)
- PS: anti-psychotic (probability of activity signature): ++ (5% ≤ ++ <25%)
- SD: sedative hypnotic (probability of activity signature): ++ (5% ≤ ++ <25%)
- UN: uncharacterized CNS activity (probability of activity signature): + (LOQ ≤ + <5%)

SMILES: CC[C@H]1OCc2cccc(C)c2[C@@H]1N.Cl [Example 207]
- minimal effective dose [2]: 3 to 10 mg/kg
- AD: ADHD (probability of activity signature): + (LOQ ≤ + <5%)
- AG: analgesic (probability of activity signature): ++ (5% ≤ ++ <25%)
- AX: anxiolytic (probability of activity signature): ++ (5% ≤ ++ <25%)
- CE: cognitive enhancer (probability of activity signature): ++ (5% ≤ ++ <25%)
- DP: anti-depressant (probability of activity signature): ++ (5% ≤ ++ <25%)
- MS: mood stabilizer (probability of activity signature): + (LOQ ≤ + <5%)
- PS: anti-psychotic (probability of activity signature): ++ (5% ≤ ++ <25%)
- SD: sedative hypnotic (probability of activity signature): + (LOQ ≤ + <5%)
- UN: uncharacterized CNS activity (probability of activity signature): ++++ (50% ≤ ++++)

SMILES: C[C@H]1OCc2cccc(Cl)c2[C@@H]1N [Example 159]
- minimal effective dose [2]: 3 to 10 mg/kg
- AD: ADHD (probability of activity signature): + (LOQ ≤ + <5%)
- AG: analgesic (probability of activity signature): + (LOQ ≤ + <5%)
- AX: anxiolytic (probability of activity signature): +++ (25% ≤ +++ <50%)
- CE: cognitive enhancer (probability of activity signature): + (LOQ ≤ + <5%)
- DP: anti-depressant (probability of activity signature): +++ (25% ≤ +++ <50%)
- MS: mood stabilizer (probability of activity signature): + (LOQ ≤ + <5%)
- PS: anti-psychotic (probability of activity signature): + (LOQ ≤ + <5%)
- SD: sedative hypnotic (probability of activity signature): + (LOQ ≤ + <5%)
- UN: uncharacterized CNS activity (probability of activity signature): ++ (5% ≤ ++ <25%)

SMILES: CCc1cccc2c1COCC2N.Cl (stereo not drawn) [Example 17, 8-Ethylisochroman-4-amine hydrochloride]
- minimal effective dose [1]: 10 to 30 mg/kg
- AD: ADHD (probability of activity signature): + (LOQ ≤ + <5%)
- AG: analgesic (probability of activity signature): ++ (5% ≤ ++ <25%)
- AX: anxiolytic (probability of activity signature): +++ (25% ≤ +++ <50%)
- CE: cognitive enhancer (probability of activity signature): ++ (5% ≤ ++ <25%)
- DP: anti-depressant (probability of activity signature): ++ (5% ≤ ++ <25%)
- MS: mood stabilizer (probability of activity signature): + (LOQ ≤ + <5%)
- PS: anti-psychotic (probability of activity signature): ++ (5% ≤ ++ <25%)
- SD: sedative hypnotic (probability of activity signature): + (LOQ ≤ + <5%)
- UN: uncharacterized CNS activity (probability of activity signature): +++ (25% ≤ +++ <50%)

SMILES: Cc1ccc2c(c1)[C@H](N)[C@H](C)OC2.Cl (relative stereo) [Example 76, cis-3,6-Dimethylisochroman-4-amine hydrochloride]
- minimal effective dose [1]: < 3 mg/kg
- AD: ADHD (probability of activity signature): + (LOQ ≤ + <5%)
- AG: analgesic (probability of activity signature): ++ (5% ≤ ++ <25%)
- AX: anxiolytic (probability of activity signature): ++ (5% ≤ ++ <25%)
- CE: cognitive enhancer (probability of activity signature): ++ (5% ≤ ++ <25%)
- DP: anti-depressant (probability of activity signature): ++ (5% ≤ ++ <25%)
- MS: mood stabilizer (probability of activity signature): + (LOQ ≤ + <5%)
- PS: anti-psychotic (probability of activity signature): ++ (5% ≤ ++ <25%)
- SD: sedative hypnotic (probability of activity signature): + (LOQ ≤ + <5%)
- UN: uncharacterized CNS activity (probability of activity signature): +++ (25% ≤ +++ <50%)

SMILES: Cc1ccc(C)c2c1COCC2N.Cl (stereo not drawn) [Example 47, 5,8-Dimethylisochroman-4-amine hydrochloride]
- minimal effective dose [1]: < 3 mg/kg
- AD: ADHD (probability of activity signature): + (LOQ ≤ + <5%)
- AG: analgesic (probability of activity signature): ++ (5% ≤ ++ <25%)
- AX: anxiolytic (probability of activity signature): ++ (5% ≤ ++ <25%)
- CE: cognitive enhancer (probability of activity signature): ++ (5% ≤ ++ <25%)
- DP: anti-depressant (probability of activity signature): ++ (5% ≤ ++ <25%)
- MS: mood stabilizer (probability of activity signature): ++ (5% ≤ ++ <25%)
- PS: anti-psychotic (probability of activity signature): ++ (5% ≤ ++ <25%)
- SD: sedative hypnotic (probability of activity signature): + (LOQ ≤ + <5%)
- UN: uncharacterized CNS activity (probability of activity signature): ++++ (50% ≤ ++++)

SMILES: Cl.NC1CCOCc2ccccc21 (stereo not drawn) [Example 33, 1,3,4,5-Tetrahydrobenzo[c]oxepin-5-amine hydrochloride]
- minimal effective dose [1]: 10 to 30 mg/kg
- AD: ADHD (probability of activity signature): + (LOQ ≤ + <5%)
- AG: analgesic (probability of activity signature): ++ (5% ≤ ++ <25%)
- AX: anxiolytic (probability of activity signature): ++ (5% ≤ ++ <25%)
- CE: cognitive enhancer (probability of activity signature): ++ (5% ≤ ++ <25%)
- DP: anti-depressant (probability of activity signature): + (LOQ ≤ + <5%)
- MS: mood stabilizer (probability of activity signature): + (LOQ ≤ + <5%)
- PS: anti-psychotic (probability of activity signature): ++ (5% ≤ ++ <25%)
- SD: sedative hypnotic (probability of activity signature): + (LOQ ≤ + <5%)
- UN: uncharacterized CNS activity (probability of activity signature): +++ (25% ≤ +++ <50%)

SMILES: COc1ccc2c(c1)CO[C@H](C)[C@H]2N.Cl [Example 232]
- minimal effective dose [2]: 10 to 30 mg/kg
- AD: ADHD (probability of activity signature): + (LOQ ≤ + <5%)
- AG: analgesic (probability of activity signature): ++ (5% ≤ ++ <25%)
- AX: anxiolytic (probability of activity signature): ++ (5% ≤ ++ <25%)
- CE: cognitive enhancer (probability of activity signature): + (LOQ ≤ + <5%)
- DP: anti-depressant (probability of activity signature): + (LOQ ≤ + <5%)
- MS: mood stabilizer (probability of activity signature): + (LOQ ≤ + <5%)
- PS: anti-psychotic (probability of activity signature): + (LOQ ≤ + <5%)
- SD: sedative hypnotic (probability of activity signature): + (LOQ ≤ + <5%)
- UN: uncharacterized CNS activity (probability of activity signature): ++ (5% ≤ ++ <25%)
